Results: patent publication US6583180B2, “Glucocorticoid receptor modulators” (Abbott Laboratories, priority 2001, dated 2003)

Biological target: T1, Human glucocorticoid receptors (Homo sapiens, UniProt P04150)
T1 construct: made in house; host or cells: Sf9 insect cells, recombinant baculovirus (BAC-TO-BAC)
T1 sequence (P04150 1-777): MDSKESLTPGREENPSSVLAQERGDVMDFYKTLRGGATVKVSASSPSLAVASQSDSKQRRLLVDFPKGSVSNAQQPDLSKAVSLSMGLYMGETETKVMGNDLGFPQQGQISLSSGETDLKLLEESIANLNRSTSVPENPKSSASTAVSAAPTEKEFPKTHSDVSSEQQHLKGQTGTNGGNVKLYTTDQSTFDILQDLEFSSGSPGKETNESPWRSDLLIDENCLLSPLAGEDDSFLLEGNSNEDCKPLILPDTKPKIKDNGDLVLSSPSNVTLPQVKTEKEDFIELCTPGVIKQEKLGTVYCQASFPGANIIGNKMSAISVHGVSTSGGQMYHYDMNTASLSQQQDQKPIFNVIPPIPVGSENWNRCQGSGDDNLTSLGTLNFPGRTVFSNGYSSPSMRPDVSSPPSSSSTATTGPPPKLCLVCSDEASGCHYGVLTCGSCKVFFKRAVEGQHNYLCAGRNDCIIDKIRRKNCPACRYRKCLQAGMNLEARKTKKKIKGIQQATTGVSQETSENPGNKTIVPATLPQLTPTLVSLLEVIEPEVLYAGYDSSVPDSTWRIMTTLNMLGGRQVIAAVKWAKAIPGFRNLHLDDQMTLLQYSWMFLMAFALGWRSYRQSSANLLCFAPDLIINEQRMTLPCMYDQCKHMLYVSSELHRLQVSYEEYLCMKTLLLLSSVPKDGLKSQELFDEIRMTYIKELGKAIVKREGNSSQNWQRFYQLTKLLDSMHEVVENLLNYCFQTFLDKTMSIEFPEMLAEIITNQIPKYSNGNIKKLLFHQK
Assay: Radioligand filter binding assay, displacement of 3[H]-dexamethasone from hGR
Conditions: read-out: GR Binding (% Inhibition at 1.7 μM)
Text: Dexamethasone hereafter referred to as dex was purchased from SIGMA. […] Human glucocorticoid receptors were extracted from Sf9 cells infected with a recombinant baculovirus transfer vector containing the cloned hGR genes. Recombinant baculovirus was generated utilizing the BAC-TO-BAC expression system (Life Technologies) in accordance to instruction from the supplier. The hGR coding sequences were cloned into a baculovirus transfer vector by standard techniques. The recombinant baculoviruses expressing hGR were amplified and used to infect Sf9 cells. Infected cells were harvested 48 hrs post infection. […] The concentration of hGR in the extract was measured as specific ^3[H]-dex binding with the G25-assay as described in J. Steroid Biochem. Molec. […] The extract was aliquoted and stored at −70° C.
The filter binding assay: Dilution series of the test compounds and dex as reference were made from 10 mM (1 mM dex) stock solutions in DMSO. 10 μl of the dilutions was added in duplicates to the wells. The cell extracts were diluted 10 fold in EPMo+MTG buffer (1 mM EDTA, HPO4 20 mM (pH8), 6 mM MTG). […] 110 μl of the diluted ^3[H]-dex were added to the wells. The final concentration of hGR in the experiment was estimated to 1 nM. All preparations were made in […] on ice and with +4° C. temperated buffers. The plates were incubated over night at +4° C. (15-20 hours).
The incubation was stopped by filtration through GF/B filter on the Tomtec Cellharvester. The filtration on the Tomtec Cellharvester was programmed as follows: 1) Preparation before filtration with EP buffer (1 mM EDTA 20 mM HPO4 (pH8)) 2×[Wash/Asp 0.6 sec., Asp 0.5 sec.]; 2) Prewet of GF/B filter with EP+PEI buffer (EP buffer, 0.3% Polyethylenimine) [Asp 0.8 sec.]; 3) Filtration/harvesting of the 96-well incubation plate 3×[Wash/Asp 0.6 sec., Asp 0.5 sec.]. The GF/B filter was dried for at least 1 hour at 65° C. A MeltiLex scintillation wax was melted onto the filter with the Microsealer. The filter was placed in a samplebag, which was thereafter trimmed with scissors to fit the filter cassette. The cassette were placed in the Microbeta and measured for 1 min/position, returning ccpm (corrected counts per minute).
b=((bmax−bmin)/(1+(I/IC50)^S))+bminI
The Microbeta-instrument generates the mean cpm (counts per minute) value/minute and corrects for individual variations between the detectors thus generating corrected cpm values.

Compound	inhibition at 1.7 µM
Cc1c(NS(=O)(=O)N(C)C)cccc1N(Cc1ccccc1)Cc1ccccc1 [Example 5, N′-[3-(dibenzylamino)-2-methylphenyl]-N,N-dimethylsulfamide]	75.2%
Cc1c(NS(C)(=O)=O)cccc1N(Cc1ccccc1)Cc1ccc([N+](=O)[O-])cc1 [Example 8, N-{3-[benzyl(4-nitrobenzyl)amino]-2-methylphenyl}methanesulfonamide]	75.9%
Cc1c(NS(C)(=O)=O)cccc1N(Cc1ccccc1)Cc1ccc2c(c1)OCO2 [Example 15, N-{3-[(1,3-benzodioxol-5-ylmethyl)(benzyl)amino]-2-methylphenyl}methanesulfonamide]	77.9%
Cc1c(NS(C)(=O)=O)cccc1N(Cc1ccccc1)Cc1ccc2c(c1)OCCO2 [Example 16, N-{3-[benzyl(2,3-dihydro-1,4-benzodioxin-6-ylmethyl)amino]-2-methylphenyl}methanesulfonamide]	75.6%
COc1ccc(CN(Cc2ccccc2C#N)c2cccc(NS(C)(=O)=O)c2C)c(F)c1 [Example 21, N-{3-[(2-cyanobenzyl)(2-fluoro-4-methoxybenzyl)amino]-2-methylphenyl}methanesulfonamide]	71.5%
Cc1c(NS(C)(=O)=O)cccc1N(Cc1ccccc1Br)C(C#N)c1ccccc1 (stereo not shown) [Example 37, N-(3-{(2-bromobenzyl)[cyano(phenyl)methyl]amino}-2-methylphenyl)methanesulfonamide]	72.5%
C=Cc1c(NS(C)(=O)=O)cccc1N(Cc1ccccc1)Cc1ccccc1 [Example 44, N-[3-(dibenzylamino)-2-vinylphenyl]methanesulfonamide]	89.2%
CCOC(=O)CCNC(=O)c1ccc(Oc2ccc(CN(Cc3ccc(F)cc3F)c3cccc(NS(C)(=O)=O)c3C)cc2)cc1 [Example 68, ethyl N-(4-{4-[((2,4-difluorobenzyl){2-methyl-3-[(methylsulfonyl)amino]phenyl}amino)methyl]phenoxy}benzoyl)-beta-alaninate]	90.4%
Cc1c(NS(C)(=O)=O)cccc1N(Cc1ccc(Oc2ccc(CCCC(=O)O)cc2)cc1)Cc1ccc(F)cc1F [Example 74, 4-(4-{4-[((2,4-difluorobenzyl){2-methyl-3-[(methylsulfonyl)amino]phenyl}amino)methyl]phenoxy}phenyl)butanoic acid]	97.2%
COC(=O)NCCOc1cccc(Oc2ccc(CN(Cc3ccccc3)c3cccc(NS(C)(=O)=O)c3C)cc2)c1 [Example 82, methyl 2-(3-{4-[(benzyl{2-methyl-3-[(methylsulfonyl)amino]phenyl}amino)methyl]phenoxy}phenoxy)ethylcarbamate]	96.9%
Cc1c(NS(C)(=O)=O)cccc1N(Cc1ccccc1)Cc1ccc(Oc2ccc(CCC(=O)OCc3ccccc3)cc2)cc1 [Example 98, benzyl 3-(4-{4-[(benzyl{2-methyl-3-[(methylsulfonyl)amino]phenyl}amino)methyl]phenoxy}phenyl)propanoate]	87.4%
Cc1c(NS(C)(=O)=O)cccc1N(Cc1ccccc1)Cc1ccc(Oc2cccc(OC3CCOC3=O)c2)cc1 (stereo not shown) [Example 112, N-{3-[benzyl(4-{3-[(2-oxotetrahydrofuran-3-yl)oxy]phenoxy}benzyl)amino]-2-methylphenyl}methanesulfonamide]	96.9%
Cc1c(NS(C)(=O)=O)cccc1N(Cc1ccccc1)Cc1ccc(Oc2cccc(OC(CCO)C(=O)O)c2)cc1 (stereo not shown) [Example 113, 2-(3-{4-[(benzyl{2-methyl-3-[(methylsulfonyl)amino]phenyl}amino)methyl]phenoxy}phenoxy)-4-hydroxybutanoic acid]	96.4%
Cc1c(NS(C)(=O)=O)cccc1N(Cc1ccccc1)Cc1ccc(Oc2cccc(OCCCCC(=O)O)c2)cc1 [Example 117, 5-(3-{4-[(benzyl{2-methyl-3-[(methylsulfonyl)amino]phenyl}amino)methyl]phenoxyl}phenoxy)pentanoic acid]	98.1%
CC(=O)c1cccc(Oc2ccc(CN(Cc3ccc(F)cc3F)c3cccc(NS(C)(=O)=O)c3C)cc2)c1 [Example 140, N-{3-[[4-(3-acetylphenoxy)benzyl](2,4-difluorobenzyl)amino]-2-methylphenyl}methanesulfonamide]	88.1%

Second part, the compound after the results:

inhibition at 1.7 µM	Compound
90.4%	CCOc1ccc(CN(Cc2ccc(F)cc2F)c2cccc(NS(C)(=O)=O)c2C)cc1 [Example 142, N-{3-[(2,4-difluorobenzyl)(4-ethoxybenzyl)amino]-2-methylphenyl}methanesulfonamide]
28.1%	Cc1c(NS(C)(=O)=O)cccc1N(Cc1ccccc1)Cc1ccc(-c2ccccc2C#N)cc1 [Example 146, N-(3-{benzyl[(2′-cyano-1,1′-biphenyl-4-yl)methyl]amino}-2-methylphenyl)methanesulfonamide]
94.9%	Cc1c(NS(C)(=O)=O)cccc1N(Cc1ccc(OCc2ccc3c(c2)OCO3)cc1)Cc1ccc(F)cc1F [Example 156, N-{3-[[4-(1,3-benzodioxol-5-ylmethoxy)benzyl](2,4-difluorobenzyl)amino]-2-methylphenyl}methanesulfonamide]
91.8%	Cc1c(NS(C)(=O)=O)cccc1N(Cc1ccc(OCc2cc3c(cc2Cl)OCO3)cc1)Cc1ccc(F)cc1F [Example 157, N-{3-[{4-[(6-chloro-1,3-benzodioxol-5-yl)methoxy]benzyl}(2,4-difluorobenzyl)amino]-2-methylphenyl}methanesulfonamide]
93.1%	Cc1c(NS(C)(=O)=O)cccc1N(Cc1ccc(OCCc2ccccc2)cc1)Cc1ccc(F)cc1F [Example 158, N-(3-{(2,4-difluorobenzyl)[4-(2-phenylethoxy)benzyl]amino}-2-methylphenyl)methanesulfonamide]
96%	Cc1c(NS(C)(=O)=O)cccc1N(Cc1ccc(Oc2cccc(OC[C@@H]3C[C@@H](O)CC(=O)O3)c2)cc1)Cc1ccc(F)cc1F [Example 231, N-(3-((2,4-difluorobenzyl)(4-(3-(((2S,4R)-6-oxo-4-hydroxytetrahydro-2H-pyran-2-yl)methoxy)phenoxy)benzyl)amino)-2-methylphenyl)methanesulfonamide]
94.9%	CCOC(=O)CCCOc1ccc(Oc2ccc(CN(Cc3ccccc3)c3cccc(NS(C)(=O)=O)c3C)cc2)cc1 [Example 232, ethyl 4-(4-{4-[(benzyl{2-methyl-3-[(methylsulfonyl)amino]phenyl}amino)methyl]phenoxy}phenoxy)butanoate]
96.8%	Cc1c(NS(C)(=O)=O)cccc1N(Cc1ccccc1)Cc1ccc(Oc2ccc(OCCCC(=O)O)cc2)cc1 [Example 233, 4-(4-{4-[(benzyl{2-methyl-3-[(methylsulfonyl)amino]phenyl}amino)methyl]phenoxy}phenoxy)butanoic acid]
96.1%	Cc1c(NS(C)(=O)=O)cccc1N(Cc1ccccc1)Cc1ccc(Oc2ccc(OCCCCC(=O)O)cc2)cc1 [Example 234, 5-(4-{4-[(benzyl{2-methyl-3-[(methylsulfonyl)amino]phenyl}amino)methyl]phenoxy}phenoxy)pentanoic acid]
96.1%	CCc1ccc(Oc2ccc(CN(Cc3ccc(F)cc3F)c3cccc(NS(C)(=O)=O)c3C)cc2)cc1OCC(=O)O [Example 236, (5-{4-[((2,4-difluorobenzyl){2-methyl-3-[(methylsulfonyl)amino]phenyl}amino)methyl]phenoxy}-2-ethylphenoxy)acetic acid]
